Source: US20180303101A1, “METHOD OF IMPROVING GRASS QUALITY” (priority 2004, published 2018)

Test system: creeping bentgrass (variety Penncross) turf
Assay: Bentgrass color rating after foliar spray (Example 4)
Format: in vivo
Details: 6 weeks after treatment; iprodione 4 oz/1000 sq. ft.; Pigment Green 7 6.8 or 13.6 g/1000 sq. ft. in combination, 13.6 g alone
From the text: Pigment Green 7 was suspended in water and applied as a foliar spray to creeping bentgrass (variety Penncross) turf with a pressurized sprayer at a spray volume of 1.37 gallons of water per 1000 sq. ft. (ca. 560 l/ha). Pigment Green 7 was applied at rates of 6.8, 13.9, and 20.4 grams per 1000 sq. ft. (0.73, 1.5, and 2.2 kg/ha, respectively). Each treatment was replicated 4 times. An untreated plot was included and was also replicated four times. The average color of the bentgrass was visually evaluated at 6 weeks after treatment. Color was evaluated on a qualitative scale from 1-9, with 9 being the highest quality and 1 the lowest quality.
The procedure of Example 2 was repeated using iprodione fungicide (in the form of 26 GT brand iprodione fungicide) at 4 oz/1000 sq. ft. (ca. 1.3 mL/m2), iprodione at 4 oz/1000 sq. ft. (ca. 1.3 mL/m2) plus Pigment Green 7 at 6.8 g/1000 sq. ft. (0.73 kg/ha), iprodione at 4 oz/1000 sq. ft. plus Pigment Green 7 at 13.6 g/1000 sq. ft. (1.5 kg/ha), and Pigment Green 7 at 13.6 g/1000 sq. ft. (1.5 kg/ha). At 6 weeks after treatment, the color ratings were as follows.

CC(C)NC(=O)N1CC(=O)N(c2cc(Cl)cc(Cl)c2)C1=O [iprodione, 3-(3,5-dichlorophenyl)-N-(l-methylethyl)-2,4-dioxo-1-imidazolidinecarbox-amide, reference compound]
Color rating versus untreated check: not significantly different than the untreated check
